Consider ten compounds from US4720486A, “Method of inhibiting vertebrate collagenase activity using peptide hydroxamic acid derivatives” (Monsanto Company, priority 1987, dated 1988).

Where a SMILES comes first, the peptide text is derived from it. The star is where a group is joined. Cbz = O=C(OCc1ccccc1)*; NHOH = ON*

Common to all, as to format: biochemical
Experiment [1] concerns the target T1, human synovial collagenase (Homo sapiens, UniProt P03956).
T1 construct: endogenous in cells; host or cells: primary human synovial cells from a knee synovectomy, stimulated with SK Hepatoma conditioned medium
T1 sequence (P03956 100-469): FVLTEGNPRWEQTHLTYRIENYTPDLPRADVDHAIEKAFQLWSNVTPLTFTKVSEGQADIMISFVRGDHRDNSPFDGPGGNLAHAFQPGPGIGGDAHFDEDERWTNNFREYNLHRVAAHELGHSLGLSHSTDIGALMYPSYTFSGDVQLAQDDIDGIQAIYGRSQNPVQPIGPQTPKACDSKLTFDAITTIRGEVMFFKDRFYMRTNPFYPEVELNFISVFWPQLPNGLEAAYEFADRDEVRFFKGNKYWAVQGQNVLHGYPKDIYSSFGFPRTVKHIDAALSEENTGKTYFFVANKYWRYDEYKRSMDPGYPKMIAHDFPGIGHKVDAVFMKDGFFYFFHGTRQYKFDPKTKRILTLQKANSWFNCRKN
The experiment in a line: Collagenase inhibition test (14C-collagen assay), synovial collagenase. As to conditions: for Ki: 0.50 M NaCl, 0.01 M CaCl2, 0.05 M Tris, pH 7.5, 35° C., Dixon plot, single substrate concentration 10 μM collagen. As to the method:
(§1) ^14 C-collagen was prepared by reductive methylation of calf skin collagen at 4° C. using ^14 C-formaldehyde and sodium borohydride. Calf skin collagen (Sigma) was dissolved at 7.5 mg/ml in 60 ml of 0.10M acetic acid and dialyzed at 4° C. against 0.15M potassium phosphate, pH 7.6, for eight hours followed by dialysis overnight against 0.4M NaCl. The collagen solution was then adjusted to pH 9.0 by addition of 0.50M sodium borate and then 1 mCi of ^14 C-formaldehyde (10 mCi/mmol) was added. After one minute, 0.10M sodium borohydride (660 μl in 1.3 mM NaOH) was added in four aliquots, followed by an additional aliquot (340 μl) 30 minutes later. The solution was then dialyzed exhaustively against 0.01M acetic acid, centrifuged to remove particulates and stored frozen in 1 ml aliquots. Specific activity was 1.3×10^6 DPM/mg. Unlabeled collagen was prepared in the same way, stored frozen and mixed with labeled collagen at a ratio of 9 to 1. For assay, the diluted ^14 C-collagen was dialyzed 6-8 hours at 4° C. against 0.15M potassium phosphate, pH 7.6, followed by dialysis overnight against 0.4M sodium chloride. This solution was centrifuged to remove any undissolved collagen and stored at 4° C.
(§2) Collagenase asays were carried out according to the method of Terato et al., Biochim. Biophys. Acta 445, 753 (1976). They were performed in 1.5 ml polypropylene microfuge tubes. Each assay tube contained 50 μl of ^14 C-collagen solution (4 mg/ml) and 50 μl of 1.0M glucose, 0.10M Tris, 0.4M NaCl, 0.02M CaCl2, pH 7.5. This solution was incubated for ten minutes at 35° C. and the reaction initiated by the addition of 100 μl of enzyme solution. Those samples containing procollagenase were first activated by incubating 100 μl aliquots with 1-5 μl of 10 mg/ml trypsin (in 1 mM HCl) for 20 minutes at 23° C., followed by 20 μl of 5 mg/ml soybean trypsin inhibitor (in 0.05M Tris, 0.01M CaCl2, pH 7.5) to quench the trypsin activity. The collagenase assay was terminated after 30 minutes at 35° C. by the addition of 20 μl of 0.08M 1,10-phenanthroline in 50% (v/v) dioxane and the incubation was continued for one hour at 35° C. to denature the collagen digestion products. Each sample was cooled for 15 minutes at 23° and 200 μl of dioxane was added with vigorous vortexing to precipitate uncleaved collagen. Following centrifugation at 11,000 RPM, 350 μl aliquots were added to 5.0 ml of Pico-Fluor 30 to determine radioactivity.
(§3) Collagenase activities were measured in the presence of the test compounds by adding an aliquot of the compound (0-85 μl) and buffer to 100 μl of glucose-collagen solution to give a total volume of 185 μl, incubating at 35° C. for 10 minutes and then initiating the reaction with 15 μl of purified collagenase. The rest of the assay was performed as described above.
(§4) To determine the mechanism of inhibition, the following equation was used [(Holmquist and Vallee, J. Biol. Chem. 249, 4601 (1974)] [formula] where Ao is the activity in the absence of inhibitor and AI is the activity in the presence of inhibitor.
Approximately 2.0 gms of synovial tissue were obtained from a patient undergoing synovectomy of the knee. All procedures were carried out in a laminar flow hood under aseptic conditions. The tissue was placed in 250 ml McCoys 5A (modified) medium containing 200 μg/ml gentamicin and stored overnight at 0° C. The next day the tissue was warmed to room temperature, cut into 0.25 cm pieces and added to 11 ml of serum-free DMEM, containing 4 mg/ml clostridial collagenase (Worthington). After incubating the mixture for one hour at room temperature, an equal volume of 0.25% trypsin was added and the incubation continued for an additional thirty minutes. The cells were spun down at 400×g for ten minutes, resuspended in 20 ml trypsin/EDTA (Gibco 10×) and incubated for 30 minutes with occasional mixing by drawing through a 25 ml pipet. The suspension was centrifuged and the pellet was washed two times with PBS:DMEM (1:1) containing 10% FBS. […]

The target in experiment [2] is T2, human skin fibroblast collagenase (Homo sapiens, UniProt P03956).
T2 construct: active collagenase isolated by this method consisted of two bands, a major species with molecular weight 45,000; host or cells: normal human skin fibroblasts CRL 1224 in SK Hepatoma conditioned medium
T2 sequence (P03956 100-469): T1 sequence (P03956 100-469)
The experiment in a line: Collagenase inhibition test (14C-collagen assay), skin fibroblast collagenase. As to conditions: 0.50 M NaCl, 0.01 M CaCl2, 0.05 M Tris, pH 7.5, 35° C.; Dixon plot, single substrate concentration 10 μM collagen. As to the method: as §1, §2, §3, §4
One vial of normal skin fibroblasts was purchased (American Type Cell Culture CRL 1224), thawed at 37° C. and transferred to a 150 cm^2 T-flask. Fifty ml of DMEM containing 10% FBS were added and the cells incubated for one week at 37° C. under 5% CO2. The cells were then split into three T-flasks. When the flasks became overgrown with cells, normal media was replaced with SK Hepatoma conditioned media and changed twice a week. This media was stored and used as the starting material for collagenase isolation.
The other test compounds were assumed to inhibit by the same mechanism so that all studies were performed at only a single substrate concentration, 10μM, and the KI values were determined from the intersection with the abscissa.

The target in experiment [3] is T3, human collagenase isolated from skin fibroblasts and synovial cells (Homo sapiens, UniProt P03956).
T3 construct: endogenous in cells; host or cells: human skin fibroblasts (CRL 1224) or primary human synovial cells; enzyme purified from conditioned medium
T3 sequence (P03956 100-469): T1 sequence (P03956 100-469)
The experiment in a line: Collagenase inhibition, (enzyme source not distinguished). As to the method: as §1, §2
Collagenase activities were measured in the presence of the test compounds by adding an aliquot of the compound (0-85 μl) and buffer to 100 μl of glucose-collagen solution to give a total volume of 185 μl, incubating at 35° C. for 10 minutes and then initiating the reaction with 15 μl of purified collagenase. The rest of the assay was performed as described above. […]

Consider `NCC(=O)NO` [Gly--NHOH], for which the Ki (as a rule, the dissociation constant of the complex between target and ligand, obtained from inhibition or displacement) was 18000 µM in experiment [1] and more than 1000 µM in experiment [2].
On to `CC(NC(=O)OCc1ccccc1)C(=O)NCC(=O)NO` (centres unmarked) [Z--Ala--Gly--NHOH], for which the results for the Ki in experiment [1] and in experiment [2] were 2600 µM and 1300 µM, respectively.
Taken in the same sequence, the figures for `O=C(CNC(=O)CNC(=O)OCc1ccccc1)NO` [Z--Gly--Gly--NHOH] (Cbz-Gly-Gly-{NHOH}) were 2000 µM and 3000 µM.
In the case of `O=C(CNC(=O)OCc1ccccc1)NO` [Z--Gly--NHOH], the inhibition constant (Ki) was 960 µM in experiment [1] and 600 µM in experiment [2].
With `CC(C)CC(NC(=O)OCc1ccccc1)C(=O)NCC(=O)NO` (centres unmarked) [Z--Leu--Gly--NHOH], the Ki in experiment [1] came to 170 µM; in experiment [2], 480 µM.
Taken in the same sequence, the figures for `CC(C)C[C@H](NC(=O)OCc1ccccc1)C(=O)N[C@@H](CC(C)C)C(=O)NCC(=O)NO` [Z--Leu--Leu--Gly--NHOH] (Cbz-Leu-Leu-Gly-{NHOH}) were 330 µM and 300 µM.
Taken in the same sequence, the figures for `CSCCC(NC(=O)OCc1ccccc1)C(=O)NCC(=O)NO` (centres unmarked) [Z--Met--Gly--NHOH] were 200 µM and 150 µM.
Taken in the same sequence, the figures for `O=C(CNC(=O)C(Cc1ccccc1)NC(=O)OCc1ccccc1)NO` (centres unmarked) [Z--Phe--Gly--NHOH] were 100 µM and 150 µM.
Regarding `CC(C)C[C@H](NC(=O)[C@@H]1CCCN1C(=O)OCc1ccccc1)C(=O)NCC(=O)NO` [Z--Pro--Leu--Gly--NHOH, N-Benzyloxycarbonyl-L-prolyl-L-leucylglycine Hydroxamic Acid] (Cbz-Pro-Leu-Gly-{NHOH}), the Ki stood at 47 µM in experiment [1] and 40 µM in experiment [2]. Moreover, the “mechanism of inhibition (Dixon plot)” value in experiment [1] (three substrate concentrations, 3.9 μM, 1.3 μM and 0.7 μM collagen, FIG. 1) is “non-competitive inhibition”. For the same compound, in experiment [3] (estimated, ratio of KI values), the “times more active than Zincov” value is listed as 50 to 100 times. Further, the KI in experiment [3] (human collagenase) stood at 40 µM. Further, the “times more effective than the corresponding Z--Leu--Leu--Gly--NHOH analog” value in experiment [3] (ratio of KI values) was “ten”.
With `CC(C)CC(C(=O)NO)C(=O)N[C@@H](C)C(=O)NCC(N)=O` (stereo partly drawn) [Zincov, 2-(N-Hydroxycarboxamido)-4-methylpentanoyl-L-Ala-glycine amide], in experiment [3] (human collagenase), the Ki stood at 2000 µM.
